Measurements: patent US20240307415A1, “STEROID COMPOUND, AND PHARMACEUTICAL COMPOSITION THEREOF AND USE THEREOF” (JIANGSU SIMCERE PHARMACEUTICAL CO., LTD., priority 2021, published 2024)

Key:
[1] = Metabolic stability in human liver microsomes; format: in vitro ADME; details: pH 7.4, 1 μM compound, 0.5 mg/mL microsome, NADPH 1 mM, 37° C., read-out: Human liver microsome stability t1/2
Excerpt: (§1) • 1. Human liver microsome (Corning 452117), beagle dog liver microsome (XENOTECH D1000), SD rat liver microsome (XENOTECH R1000), and CD-1 mouse liver microsome (XENOTECH M1000) • 2. Na2HPO4 (Tianjin Guangfu Fine Chemical Research Institute 20180130) • 3. KH2PO4 (Tianjin Guangfu Fine Chemical Research Institute 20180920) • 4. MgCl2 (Tianjin Guangfu Fine Chemical Research Institute 20191216) • 5. NADPH (Solarbio 1216C022) • 6. Positive control compound verapamil (Sigma MKBV4993V) • 7. AB Sciex API4000 liquid chromatography-mass spectrometry system
(§2) • 1. Preparation of 100 mM phosphate-buffered saline (PBS): 7.098 g Na2HPO4 was weighed. 500 mL pure water was added. The mixture was dissolved by sonication to give solution A. 3.400 g KH2PO4 was weighed. 250 mL pure water was added. […]
(§3) All data were calculated by Microsoft Excel software. The peak area was detected through an extracted ion chromatogram. The in vitro half-life (t1/2) of the compound was determined by linear fitting of the natural logarithm of compound elimination percentage over time.
(§4) In vitro half-life (t1/2) was calculated by the slope k: […]
(§5) The in vitro intrinsic clearance (in μL/min/mg protein) was calculated using the following formula: […]

[2] = target: hERG potassium channel (Homo sapiens (Human), UniProt Q12809); assay: hERG inhibitory activity, manual patch clamp; format: cell-based; details: HEK293 cells stably expressing hERG
hERG potassium channel, sequence (Q12809 whole entry): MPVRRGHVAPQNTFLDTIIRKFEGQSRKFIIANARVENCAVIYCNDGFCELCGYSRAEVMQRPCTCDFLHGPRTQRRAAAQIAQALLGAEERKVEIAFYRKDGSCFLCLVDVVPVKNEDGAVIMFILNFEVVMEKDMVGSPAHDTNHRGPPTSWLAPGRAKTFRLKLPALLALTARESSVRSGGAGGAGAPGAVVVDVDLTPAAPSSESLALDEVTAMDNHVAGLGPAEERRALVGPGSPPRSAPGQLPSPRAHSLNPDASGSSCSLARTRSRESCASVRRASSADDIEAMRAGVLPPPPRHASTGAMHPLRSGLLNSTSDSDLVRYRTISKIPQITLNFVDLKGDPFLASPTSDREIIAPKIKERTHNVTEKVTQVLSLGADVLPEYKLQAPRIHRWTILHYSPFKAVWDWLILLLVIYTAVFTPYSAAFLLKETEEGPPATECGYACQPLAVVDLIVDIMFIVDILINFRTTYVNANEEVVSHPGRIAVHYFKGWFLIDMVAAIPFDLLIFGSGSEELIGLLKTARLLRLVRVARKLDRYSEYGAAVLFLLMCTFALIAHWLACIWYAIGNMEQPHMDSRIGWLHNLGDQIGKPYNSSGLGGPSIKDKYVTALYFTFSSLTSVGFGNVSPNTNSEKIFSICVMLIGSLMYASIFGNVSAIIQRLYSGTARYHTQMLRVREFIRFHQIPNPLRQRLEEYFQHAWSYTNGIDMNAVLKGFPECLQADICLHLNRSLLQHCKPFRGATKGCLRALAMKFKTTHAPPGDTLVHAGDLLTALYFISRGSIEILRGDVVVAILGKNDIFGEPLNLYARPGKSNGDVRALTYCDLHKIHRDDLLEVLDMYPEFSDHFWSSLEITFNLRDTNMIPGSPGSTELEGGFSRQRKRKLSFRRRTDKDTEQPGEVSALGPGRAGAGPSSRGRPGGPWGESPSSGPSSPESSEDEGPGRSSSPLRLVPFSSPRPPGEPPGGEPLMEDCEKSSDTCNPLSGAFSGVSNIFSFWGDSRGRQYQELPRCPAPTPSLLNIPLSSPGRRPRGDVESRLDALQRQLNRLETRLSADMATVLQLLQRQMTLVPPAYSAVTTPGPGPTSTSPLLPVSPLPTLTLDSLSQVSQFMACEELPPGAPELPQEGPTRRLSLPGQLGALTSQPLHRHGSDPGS
Procedure: The inhibition of hERG activity by the compound of the present invention was determined using the following method.
HEK293 cells (Cat. No: K1236) stably expressing hERG ion channel were purchased from Invitrogen. The cells were cultured in a culture medium containing 85% DMEM, 10% dialyzed fetal bovine serum, 0.1 mM non-essential amino acid solution, 100 U/mL penicillin-streptomycin solution, 25 mM HEPES, 5 μg/mL blasticidin, and 400 μg/mL geneticin. When the cell density increased to 40-80% of the bottom area of the culture dish, the cells were digested with trypsin and subcultured thrice every week. Before the experiment, the cells were cultured at a density of 5×10^5 in 6-cm culture dishes, induced for 48 h with 1 μg/mL doxycycline, and then digested and inoculated on a slide for the subsequent manual patch-clamp experiment. […]
• 1) The slides carrying HEK293 cells in the culture dish were placed in the perfusion chamber of the micromanipulation stage. • 2) Appropriate cells were placed in the center of the field of view under an Olympus IX51, IX71, or IX73 inverted microscope. […] The peak value of the tail current was the magnitude of the hERG current. • 9) The hERG current used to detect the test compound was recorded continuously for 120 seconds prior to dosing to assess the stability of hERG current production by the test cells. […]

[3] = Metabolic stability in mouse liver microsomes; format: in vitro ADME; details: CD-1, mouse, pH 7.4, 1 μM compound, 0.5 mg/mL microsome, NADPH 1 mM, 37° C., read-out: Mouse liver microsome stability t1/2
Excerpt: as §1, §2, §3, §4, §5

## C[C@]12C=CC(=O)C=C1CC[C@@H]1[C@@H]2[C@@H](O)C[C@@]2(C)[C@H]1C[C@H]1O[C@@H](c3ccc(Cc4cc(N)c5c(c4)CCO5)cc3)O[C@]12C(=O)CO [Compound 009, (6aR,6bS,7S,8aS,8bS,10R,11aR,12aS,12bS)-10-(4-((7-amino-2,3-dihydrobenzofuran-5-yl)methyl)phenyl)-7-hydroxy-8b-(2-hydroxyacetyl)-6a,8a-dimethyl-6a,6b,7,8,8a,8b,11a,12,12a,12b-decahydro-1H-naphtho[2′,1′:4,5]indeno[1,2-d][1,3]dioxolan-4(2H)-one]
[1]
  half-life at 1 μM: 37.8 min
[2]
  IC50: > 30 µM
[3]
  half-life at 1 μM: 17.3 min
